How the values were obtained:
PARP-1 = PARP-1 (Homo sapiens, UniProt P09874); assay: PARP-1 enzyme activity inhibition; type: biochemical; details: read-out: IC50 against PARP-1 enzyme activity
Protocol: Chemical inhibitors were dissolved in DMSO at 10 mM and stored at −20° C. in the dark.

Brca2 deficient ES cells = assay: Clonogenic assay, continuous exposure, Brca2 deficient ES cells; type: cell-based, mouse
Protocol: (§1) For measurement of sensitivity to chemical inhibitors, cell cultures e.g. ES cells or mouse embryonic fibroblasts, in exponential growth were trypsinised and seeded at various densities in 6-well plates onto confluent monolayer of Mitomycin C (MMC) inactivated mouse embryonic fibroblasts and, where appropriate, treated with inhibitors after 18 h. For continuous exposure, cells were re-fed every 4 days with fresh medium and inhibitor. For timed exposures, inhibitor was added for the specified period then cells were washed and re-fed with fresh medium. After 10-14 days, cells were washed with PBS, fixed in methanol and stained with crystal violet. Colonies containing greater than approximately 50 cells were counted. Experiments were performed at least three times in triplicate.

[1] = test system: Brca1 and Brca2 deficient cells; assay: Timed-exposure clonogenic assay, Brca1 and Brca2 deficient cells; type: cell-based, mouse
Protocol: as §1
Cells were exposed to different concentrations of KU0058684 for defined periods of time. The inhibitor was then removed and the effects measured using a clonogenic assay. The inhibitory effects of KU0058684 on clonal growth were apparent after a relatively short exposure time, 4 h, and were essentially complete by 24 h exposure (FIGS. 5 and 6).

[2] = test system: Brca1 or Brca2 deficient cells; assay: Rad51 focus formation, Brca1 or Brca2 deficient ES cells; type: cell-based, mouse; details: 48 hours
Protocol: (§2) ES cells were cultured for 48 h in various concentrations of PARP inhibitor fixed in 4% paraformaldehyde in PBS and permeabilised with 0.2% Triton X100 in PBS. Cells were stained with a 1:100 dilution of rabbit anti-Rad51 ployclonal antibody (Ab 551922, BD-Pharmingen, Oxford, UK). After washing, the primary antibody was visualised with Alexa Fluor-555 goat anti-rabbit IgG (Alexa) and nuclei with TO-PRO-3 iodide (Molecular Probes). Rad51 foci and γH2Ax foci were visualised with and quantified using a Leica TCS-SP2 confocal microscope.
Wild-type, and Brca1 and Brca2 defective ES cells were exposed to differing concentrations of KU0058684 for 48 hours. Cells were then fixed and stained for RAD51 foci as described by Tarsounas (Tarsounas M et al Oncogene. 2003 22(8): 1115-23).

[3] = test system: Brca2 deficient VC8 cells; assay: Neutral comet assay, Brca2 deficient VC8 cells; type: cell-based, chinese hamster; details: 30-hour exposure to 1 μM
Protocol: (§3) VC8 and VC8-BAC cells were plated 24 hours prior to treatment with 1 μM KU0058684 for 30 hours. All further work was carried out in the dark. Cells were washed with and scraped into PBS prior to Comet analysis as described (Lemay and Wood, 1999). Cells suspended in LMP agarose (0.5% in PBS) were spread onto Comet slides (Trevigen, Gaithersburg) and placed at 4 C until set, prior to lysis for 45 mins in 2.5M NaCl, 100 mM EDTA, 10 mM Tris Base, 1% sodium lauryl sarcosinate, 0.01% Triton X-100. Slides were transferred to TBE for 5 mins prior to electrophoresis at 18V for 15 mins. Slides were then fixed in 100% ethanol for 5 mins and air dried before the addition of SYBR green dye and visualisation by epifluorescence using fluorescien filters (Nikon). Comets were analysed using the Comet software module of the Lucia G imaging package as supplied by Nikon. 50 comets per data point were examined for each of three independent experiments and the mean tail moment calculated.

VC8-BAC cells = assay: Neutral comet assay, complemented VC8-BAC line; type: cell-based, chinese hamster; details: 30-hour exposure to 1 μM
Protocol: as §3

[4] = test system: Brca1 and Brca2 deficient cells; assay: Mitotic chromosome analysis; type: cell-based, mouse; details: 24 hours treatment
Protocol: ES cells were seeded onto gelatin, treated for 24 hours with chemical inhibitors, followed by colcemid treatment for 1 hour. Cells were harvested, fixed, dropped onto slides, dried and stained with DAPI before chromosome analysis under a microscope.

MCF7-scrambled cells = assay: Clonal survival, BRCA1 wild-type MCF7-scrambled cells; type: cell-based, human; details: continuous exposure 12-14 days
Description: Log concentration of inhibitor is plotted against log surviving fraction of cells.
The MCF7 scrambled and MCF7-3.23 cell lines were generated by stable transfection of MCF7 mammary adenocarcinoma cells with gene specific pSUPER constructs. Gene specific pSUPER constructs were generated expressing the following RNAi target sequences: (i) human BRCA1 (SEQ ID NO:3) 5r-[…]-3′ (ii) scrambled control 5′-(SEQ ID NO:4) […]-3′. A 1.8 kb fragment containing the human EF1a promoter and the blasticidin resistance gene (bsd) was subcloned from pEFBsd (Invitrogen) into the SapI site of the resultant pSUPER constructs, generated pSUPER-Bsd-BRCA1 and pSUPER-Bsd-scrambled. MCF7 cells were transfected with these plasmids using FuGene6 (Roche) according to the manufacturers instructions. After selection in blasticidin, resistant clones were assessed by real time PCR for silencing of BRCA1 mRNA (Egawa et al Oncology. 2001; 61(4): 293-8; Egawa et al Int J. Cancer. 2001 Jul. 20; 95(4):255-9). Clones with reduced levels of BRCA1 mRNA were cultured (under blasticidin selection) over 8 passages and the real-time assay repeated.

[5] = test system: Fancd2−/−, Fanca−/−, Fancc−/− and Fanca−/−c−/− fibroblasts; assay: Clonogenic survival, Fanconi anaemia mouse fibroblasts; type: cell-based; details: continuous exposure 12-14 days
Protocol: Mouse fibroblasts from wild-type, Fancd2^−/−, Fanca^−/−, Fancc^−/− and Fanca^−/−c^−/− animals were obtained from the Fanconi Anaemia Cell Repository, Oregon Health and Science University. These cells were maintained in DMEM, supplemented with FCS (10% v/v), glutamine and antibiotics. RAD54 and RAD52 Embryonic Stem (ES) cells were grown in DMEM, supplemented with FCS (15% v/v), glutamine, antibiotics, non-essential amino acids, 2-mercaptoethanol and Leukemia inhibitory Factor. HeLa cells (CCL-2) were obtained from ATCC (USA) and were maintained in DMEM, supplemented with FCS (10% v/v), glutamine and antibiotics.
as §1

[6] = test system: wild-type, Fanca−/−, Fancc−/− and Fanca−/−c−/− cells; assay: γH2AX foci formation in wild-type and FA fibroblasts; type: cell-based, mouse; details: 48 hours exposure
[7] = test system: wild-type, Fanca−/−, Fancc−/− and Fanca−/−c−/− cells; assay: RAD51 focus formation in wild-type and FA fibroblasts; type: cell-based, mouse; details: 48 hours exposure
Protocol: The percentage of cells with >5 foci per cell was quantified.
as §2

tankyrase = details: at concentrations up to 1 μM
[8] = timed exposure, inhibitor then removed

PARP-1, sequence (P09874 whole entry): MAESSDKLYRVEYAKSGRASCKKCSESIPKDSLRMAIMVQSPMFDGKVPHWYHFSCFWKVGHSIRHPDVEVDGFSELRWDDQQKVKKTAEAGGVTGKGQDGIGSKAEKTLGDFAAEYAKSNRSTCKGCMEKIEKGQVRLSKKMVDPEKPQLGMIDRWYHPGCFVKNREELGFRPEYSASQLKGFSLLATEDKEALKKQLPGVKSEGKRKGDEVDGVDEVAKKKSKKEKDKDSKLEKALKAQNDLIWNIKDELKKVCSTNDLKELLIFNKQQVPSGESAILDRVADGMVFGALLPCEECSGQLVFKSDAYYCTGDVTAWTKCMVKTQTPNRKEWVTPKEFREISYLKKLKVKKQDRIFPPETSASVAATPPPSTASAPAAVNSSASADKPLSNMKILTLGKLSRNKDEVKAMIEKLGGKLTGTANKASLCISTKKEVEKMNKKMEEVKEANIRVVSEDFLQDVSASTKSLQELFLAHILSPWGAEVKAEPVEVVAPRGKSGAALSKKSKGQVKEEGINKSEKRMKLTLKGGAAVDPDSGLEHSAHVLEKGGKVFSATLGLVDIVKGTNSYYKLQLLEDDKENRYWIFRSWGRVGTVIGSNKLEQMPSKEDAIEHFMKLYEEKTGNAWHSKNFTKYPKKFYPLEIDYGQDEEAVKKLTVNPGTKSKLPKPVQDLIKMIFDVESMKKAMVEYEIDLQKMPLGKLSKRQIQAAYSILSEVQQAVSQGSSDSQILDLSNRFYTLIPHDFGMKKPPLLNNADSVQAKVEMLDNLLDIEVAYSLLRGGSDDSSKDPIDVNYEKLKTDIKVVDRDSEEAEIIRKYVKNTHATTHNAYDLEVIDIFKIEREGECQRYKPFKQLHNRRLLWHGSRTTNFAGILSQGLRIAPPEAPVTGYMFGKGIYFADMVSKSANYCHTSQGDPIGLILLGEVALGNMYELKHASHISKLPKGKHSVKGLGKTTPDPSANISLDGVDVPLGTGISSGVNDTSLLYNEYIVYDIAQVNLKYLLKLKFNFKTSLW

O=C1CCC(=O)N1c1cc(Cc2n[nH]c(=O)c3ccccc23)ccc1F [KU0058684]
IC50 (PARP-1): 3.2 nM | IC50 (Brca2 deficient ES cells; Brca2 deficient ES cells, continuous exposure, read-out: SF50 (dosage at which 50% of cells survived)): 15 nM | enhanced sensitivity compared to wild-type (Brca2 deficient ES cells; Brca2 mutant cells vs wild-type): 133 fold | sensitivity of Brca2 deficient cells compared to otherwise isogenic cells (Brca2 deficient ES cells; clonogenic assay): extremely sensitive | reversibility of the effects of PARP inhibition ([1]; short exposure followed by 10-14 days in the absence of inhibitor): irreversible | exposure time after which inhibitory effects on clonal growth were apparent [1, 8]: 4 h | exposure time by which inhibitory effects on clonal growth were essentially complete [1, 8]: ≤ 24 h | Rad51 foci formation [2]: no foci were induced | increase in the tail moment [3]: 4.7 fold | increase in tail moment (VC8-BAC cells): no significant increase | mitotic chromosome aberrations [4]: frequent major aberrations | sensitivity (clonal survival) (MCF7-scrambled cells): both cell lines were sensitive | sensitivity of FA gene deficient fibroblasts compared to wild-type cells [5]: results in sensitivity | γH2AX foci [6]: induction of γH2AX foci in all cells | RAD51 focus formation [7]: Induction of RAD51 focus formation | inhibition of tankyrase (tankyrase): do not inhibit

From patent US8143241B2, “DNA damage repair inhibitors for treatment of cancer” (Kudos Pharmaceuticals Limited, priority 2003, dated 2012)
